Test results taken from patent US11684067B2, “Generation of peroxyformic acid through polyhydric alcohol formate” (priority 2014, dated 2023).
Where a name gives a salt, the structure may show the parent alone.

What was measured:
[1] = Perhydrolysis of esters in H2O2 solution, peracid by iodometric titration; assay type: physicochemical; conditions: 50 ppm ester; for peracid generation under the tested conditions: 150 ppm H2O2, pH 8.5; for Peracid: 150 ppm H2O2, pH 8.5, ambient
Protocol: (§1) [drawing 8] were added to 150 ppm H2O2 solution of pH 8.5 (DI water adjusted by adding 3.0 g of NaHCO3 per liter of water and then adjusted pH with Na2CO3) respectively under ambient conditions. The concentration of peroxycarboxylic acids were measured by an iodometric titration method.
as §1, with “Fifty (50) ppm various formic acid esters” for “[drawing 8]”, “method. […]” for “method.”

[2] = system: pseudomonas; test: Suspension test in cooling tower water samples; assay type: cell-based; conditions: 5 ppm Ester PFA / 6.13 ppm POAA, 10 minutes
Protocol: The antimicrobial efficacy of peroxyformic acid generated through the perhydrolysis of glycerol formatted were tested against pseudomonas in cooling tower samples at both 25° C. and 37° C., along with the peroxyacetic acid (POAA) controls, and the results are summarized in Table 6 and 7 below.

[3] = system: Aspergillus brasiliensis ATCC 16404; test: Fungicidal activity of ester PFA, dirty conditions (Example 20); assay type: cell-based; conditions: 35°C, 5 minutes
Excerpt: Various Bacillus and Aspergillus pathogens were used to evaluate the micro efficacy of ester PFA generated according to methods of the present invention.

[4] = system: Nalidixic acid resistant E. coli O157:H7; test: Reduction of E. coli on raw beef brisket, dip treatment; assay type: cell-based; conditions: 10 minutes dip, ambient, 220 ppm POAA / 180 ppm PFA / 50 ppm LAS per formula (Table 15)
Protocol: Nalidixic acid resistant E. coli O157:H7 was used to evaluate the efficacy in treatment with performic acid composition on raw beef brisket according to the conditions shown in Table 14.
The generation of PFA from the perhydrolysis of glycerol formates, PFA formulations, POAA formations and controls were evaluated as shown in Table 15.

[5] = system: Aspergillus brasiliensis ATCC 16403; test: Anti-fungal suspension test of Ester PFA, dirty conditions; assay type: cell-based
Excerpt: Aspergillus brasilensis ATCC 16403 was used to evaluate the efficacy in treatment with performic acid compositions according to the conditions shown in Table 18.

[6] = Peninsula Cooling Water pH 8.81, 25°C
[7] = Peninsula Cooling Water pH 8.81, 37°C

Structure (SMILES): CC(=O)OCC(COC(C)=O)OC(C)=O [Triacetin]
- peracid generation under the tested conditions [1]: no detectable peracid
- Peracid ([1]; 1 min): 0.00 ppm
- Peracid ([1]; 5 min): 0.00 ppm
- Peracid ([1]; 10 min): 0.00 ppm
- Peracid ([1]; 15 min): 0.00 ppm
- Peracid ([1]; 25 min): 0.00 ppm
- Peracid ([1]; 35 min): 0.00 ppm

Structure (SMILES): O=COO [Ester PFA, peroxyformic acid]
- Avg. Log10 Growth ([2]; BP Cooling Water pH 8.74, 25°C): 2.74 Log10
- Log10 Reduction ([2]; BP Cooling Water pH 8.74, 25°C): 2.93 Log10
- Avg. Log10 Growth ([2]; BP Cooling Water pH 8.74, 37°C): 2.68 Log10
- Log10 Reduction ([2]; BP Cooling Water pH 8.74, 37°C): 2.42 Log10
- Avg. Log10 Growth [2, 6]: 2.76 Log10
- Log10 Reduction [2, 6]: 2.42 Log10
- Avg. Log10 Growth [2, 7]: 2.70 Log10
- Log10 Reduction [2, 7]: 2.40 Log10
- Log10 Growth ([3]; Table 23: 300 ppm PFA): 3.87 Log10
- Log10 Reduction ([3]; Table 23: 300 ppm PFA): 2.26 Log10
- Log10 Growth ([3]; Table 23: 350 ppm PFA): 2.23 Log10
- Log10 Reduction ([3]; Table 23: 350 ppm PFA): 3.91 Log10
- Average Log CFU/cm2 [4]: 2.74 Log CFU/cm2
- Log reduction [4]: 1.30 Log
- Log10 Growth ([5]; 320 ppm PFA, 20°C, 5 minutes): 3.27 Log10
- Log10 Reduction ([5]; 320 ppm PFA, 20°C, 5 minutes): 2.57 Log10
- Log10 Growth ([5]; 320 ppm PFA, 20°C, 10 minutes): 2.22 Log10
- Log10 Reduction ([5]; 320 ppm PFA, 20°C, 10 minutes): 3.61 Log10
- Log10 Growth ([5]; 320 ppm PFA, 30 C., 5 minutes): 2.19 Log10
- Log10 Reduction ([5]; 320 ppm PFA, 30 C., 5 minutes): 3.64 Log10
- Log10 Growth ([5]; 320 ppm PFA, 30 C., 10 minutes): <2.15 Log10
- Log10 Reduction ([5]; 320 ppm PFA, 30 C., 10 minutes): >3.68 Log10
- Log10 Growth ([5]; 400 ppm PFA, 20°C, 5 minutes): <2.15 Log10
- Log10 Reduction ([5]; 400 ppm PFA, 20°C, 5 minutes): >3.68 Log10
- Log10 Growth ([5]; 400 ppm PFA, 20°C, 10 minutes): <2.15 Log10
- Log10 Reduction ([5]; 400 ppm PFA, 20°C, 10 minutes): >3.68 Log10
- Log10 Growth ([5]; 400 ppm PFA, 30 C., 5 minutes): 1.48 Log10
- Log10 Reduction ([5]; 400 ppm PFA, 30 C., 5 minutes): 4.36 Log10
- Log10 Growth ([5]; 400 ppm PFA, 30 C., 10 minutes): <2.15 Log10
- Log10 Reduction ([5]; 400 ppm PFA, 30 C., 10 minutes): >3.68 Log10

Structure (SMILES): CCOC=O [Ethyl formate]
- peracid generation under the tested conditions [1]: no detectable peracid
- Peracid ([1]; 1 min): 0.00 ppm
- Peracid ([1]; 5 min): 0.00 ppm
- Peracid ([1]; 10 min): 0.00 ppm
- Peracid ([1]; 15 min): 0.00 ppm
- Peracid ([1]; 25 min): 0.00 ppm
- Peracid ([1]; 35 min): 0.00 ppm
